Reference: US20120277517A1, “Formulation and Methods for Enhanced Interventional Image-Guided Therapy of Cancer” (The Johns Hopkins University, priority 2011, published 2012)

System: Hep3B cells
Experiment: Intratumoral injection with or without AMF hyperthermia in mice with subcutaneous Hep3B tumors
Assay type: in vivo, mouse
Settings: may be attributed to hyperthermia
Text: In another exemplary experiment, Hep3B cells were implanted by subcutaneous injection of 3×10^6 Hep3B cells suspended in PBS into the right flank of each mouse that was randomly assigned into 2 main groups (heated and unheated) that were further divided into three subgroups. When tumors reached 100 mm^3, these received intratumoral injections of T-C formulation, BNF particles alone, or PBS (3 subgroups). The heated group (9 mice) received AMF hyperthermia. Two mice from each subgroup were euthanized 24 hours following treatment, and the remaining one was euthanized when tumor in the PBS group reached 2000 mm^3.
For AMF exposure, each mouse was placed in a chamber constructed from a standard polypropylene 50-mL conical centrifuge tube that was positioned in the center of the solenoid coil. Prior to AMF therapy, each mouse received intraperitoneal injections of ketamine/xylazine (anesthesia) at an approximate dose of a 200-μL injection. Each mouse was placed in the coil for 30 min and exposed to one of the following AMF amplitudes: 0, 24, or 60 kA/m. […] During AMF exposure, mice were placed into the AMF inductor coil and therefore exposed to maximum magnetic field, corresponding to the measured (by field probe) field. Rectal and tumor temperatures were measured at one-second intervals for each mouse exposed to AMF using fiber optic temperature probes.

Question: For `COc1cccc2c1C(=O)c1c(O)c3c(c(O)c1C2=O)C[C@@](O)(C(=O)CO)C[C@@H]3O[C@H]1C[C@H](N)[C@H](O)[C@H](C)O1` [doxorubicin], which degradation of doxorubicin is on record?
Answer: 7-8%
